Tests used:
TRZAS = assay: Drought stress test on crop plants, visual damage rating, efficacy EF; assay type: in vivo, Triticum aestivum; details: dosage 25 g/ha, mean of three results
Method: (§1) Seeds of monocotyledonous and dicotyledonous crop plants were laid out in sandy loam in wood-fiber pots, covered with soil and cultivated in a greenhouse under good growth conditions. The test plants were treated at the early leaf stage (BBCH10-BBCH13). To ensure uniform water supply before commencement of stress, the potted plants were supplied with the maximum amount of water immediately beforehand by dam irrigation and, after application, transferred into plastic inserts in order to prevent subsequent, excessively rapid drying. The compounds according to the invention, formulated in the form of wettable powders (WP), wettable granules (WG), suspension concentrates (SC) or emulsion concentrates (EC), were sprayed onto the green parts of the plants as an aqueous suspension at an equivalent water application rate of 600 I/ha with addition of 0.2% wetting agent (agrotin). Substance application is followed immediately by stress treatment of the plants (cold or drought stress). […]
(§2) After the recovery phase had ended, the intensities of damage were rated visually in comparison to untreated, unstressed controls of the same age (in the case of drought stress) or the same growth stage (in the case of cold stress). The intensity of damage was first recorded as a percentage (100%=plants have died, 0%=like control plants). […]

BRSNS = assay: as above; assay type: in vivo, Brassica napus; details: dosage 25 g/ha, mean of three results
Method: as §1, §2

O=c1[nH]ccc2ccc(-c3ccc(Cl)cc3F)cc12 [I.1-252, 7-(4-chloro-2-fluorophenyl)isoquinolin-1(2H)-one]
EF (TRZAS) (TRZAS): >5% | EF (BRSNS) (BRSNS): >5%

From patent US9173395B2, “Use of substituted isoquinolinones, isoquinolindiones, isoquinolintriones and dihydroisoquinolinones or in each case salts thereof as active agents against abiotic stress in plants” (BAYER INTELLECTUAL PROPERTY GMBH, priority 2011, dated 2015)
